The values that follow come from patent US20180305332A1, “Bispiperidinyl Derivatives as Liver X Receptor Beta Agonists, Compositions, and Their Use” (Merck Sharp & Dohme Corp., priority 2015, published 2018).

Molecules are shown by their SMILES.

The target of test [1] is T1, GST tagged LXRalpha LBD (ligand binding domain) (Homo sapiens, UniProt Q13133).
T1 construct: purchased Invitrogen pv4655
T1 sequence (Q13133 209-447 limits assumed): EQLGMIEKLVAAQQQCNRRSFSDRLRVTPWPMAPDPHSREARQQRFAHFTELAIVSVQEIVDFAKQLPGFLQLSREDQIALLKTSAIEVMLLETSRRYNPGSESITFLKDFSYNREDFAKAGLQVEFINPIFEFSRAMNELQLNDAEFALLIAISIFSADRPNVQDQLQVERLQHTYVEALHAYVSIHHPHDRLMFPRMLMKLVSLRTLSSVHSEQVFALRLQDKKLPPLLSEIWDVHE
Briefly: LanthaScreen TR-FRET Liver X Receptor Coactivator Assay, LXR alpha-LBD. The following applies: relative to reference T0901317; for EC50: Inflection Point (potency), co-activator recruitment, read-out: LXR alpha IP; for Emax: activity at max dose (efficacy), read-out: LXR alpha act @ max dose (%). Format: biochemical. Put shortly: (§1)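 Values are inflection points (potency) and Emax (efficacy) expressed against reference agonist T0901317. Coactivator recruitment is measured by TR-FRET between terbium anti-GST antibody on the LBD and a fluorescein-labelled peptide, following room-temperature incubation.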
For orientation: Time-resolved FRET reads energy transfer from a long-lived donor to a nearby acceptor.

Test [2] deals with T2, GST tagged LXRbeta LBD (ligand binding domain) (Homo sapiens, UniProt P55055).
T2 construct: purchased Invitrogen pv4658.pps
T2 sequence (P55055 222-460 limits assumed): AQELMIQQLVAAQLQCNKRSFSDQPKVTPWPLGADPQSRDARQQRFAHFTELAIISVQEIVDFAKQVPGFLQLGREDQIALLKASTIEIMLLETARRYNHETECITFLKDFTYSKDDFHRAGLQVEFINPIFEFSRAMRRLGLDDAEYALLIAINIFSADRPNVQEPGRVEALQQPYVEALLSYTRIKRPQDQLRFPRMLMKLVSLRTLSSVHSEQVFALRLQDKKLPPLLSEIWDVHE
Briefly: LanthaScreen TR-FRET Liver X Receptor Coactivator Assay, LXR beta-LBD. The following applies: relative to reference T0901317; for EC50: Inflection Point (potency), co-activator recruitment, read-out: LXR beta IP; for Emax: activity at max dose (efficacy), read-out: LXR beta act @ max dose (%). Type of test: biochemical. The gist of the method:
as §1

In the case of `CN(CCO)C(=O)c1ccc(N2CCC(C3CCN(C(=O)[C@](O)(c4ccccc4)C(F)(F)F)CC3)CC2)cc1Cl` [Example E-58, 2-chloro-N-(2-hydroxyethyl)-N-methyl-4-{1′-[(2R)-3,3,3-trifluoro-2-hydroxy-2-phenylpropanoyl]-4,4′-bipiperidin-1-yl}benzamide], the EC50 in test [1] worked out at 1830 nM; in test [2], 57 nM. Moreover, the Emax was 48% in test [1] and 98% in test [2].

As to `CCCCN(C)C(=O)c1ccc(N2CCC(C3CCN(C(=O)[C@](O)(c4ccccc4)C(F)(F)F)CC3)CC2)cc1Cl` [Example E-59, N-butyl-2-chloro-N-methyl-4-{1′-[(2R)-3,3,3-trifluoro-2-hydroxy-2-phenylpropanoyl]-4,4′-bipiperidin-1-yl}benzamide], in test [1], the EC50 was determined as 2380 nM and the Emax came out at 21%. In test [2], the EC50 turned out to be 208 nM and the Emax turned out to be 89%.

As for `CCN(C)C(=O)c1ccc(N2CCC(C3CCN(C(=O)[C@](O)(c4ccccc4)C(F)(F)F)CC3)CC2)cc1Cl` [Example E-60, 2-chloro-N-ethyl-N-methyl-4-{1′-[(2R)-3,3,3-trifluoro-2-hydroxy-2-phenylpropanoyl]-4,4′-bipiperidin-1-yl}benzamide], in test [1], the EC50 is 1850 nM and the Emax is 34%. For the same molecule, in test [2], the EC50 was 100 nM and the Emax is 114%.

In the case of `CCCN(C)C(=O)c1ccc(N2CCC(C3CCN(C(=O)[C@](O)(c4ccccc4)C(F)(F)F)CC3)CC2)cc1Cl` [Example E-61, 2-chloro-N-methyl-N-propyl-4-{1′-[(2R)-3,3,3-trifluoro-2-hydroxy-2-phenylpropanoyl]-4,4′-bipiperidin-1-yl}benzamide], in test [1], the EC50 stood at 1280 nM and the Emax was found to be 29%. Moreover, in test [2], the EC50 was 100 nM and the Emax is 94%.

For the molecule `CNC(=O)c1ccc(N2CCC(C3CCN(C(=O)[C@](O)(c4ccccc4)C(F)(F)F)CC3)CC2)cc1Cl` [Example E-62, 2-chloro-N-methyl-4-{1′-[(2R)-3,3,3-trifluoro-2-hydroxy-2-phenylpropanoyl]-4,4′-bipiperidin-1-yl}benzamide], the values for the EC50 in test [1] and in test [2] were 2060 nM and 341 nM, respectively. For the same molecule, the Emax in test [1] amounted to 33%; in test [2], 99%.

For the molecule `O=C(c1ccc(N2CCC(C3CCN(C(=O)[C@](O)(c4ccccc4)C(F)(F)F)CC3)CC2)cc1Cl)N1CCC[C@H]1CO` [Example E-63, (2R)-3-[1′-(3-chloro-4-{[(2S)-2-(hydroxymethyl)pyrrolidin-1-yl]carbonyl}phenyl)-4,4′-bipiperidin-1-yl]-1,1,1-trifluoro-3-oxo-2-phenylpropan-2-ol], the EC50 worked out at 359 nM in test [1] and 21 nM in test [2]. Further, the Emax is 51% in test [1] and 86% in test [2].

Consider `CN(CCO)C(=O)c1ccc(N2CCC(C3CCN(C(=O)[C@](O)(c4ccccc4)C(F)(F)C(F)(F)F)CC3)CC2)cc1Cl` [Example E-64, 2-chloro-N-(2-hydroxyethyl)-N-methyl-4-{1′-[(2R)-3,3,4,4,4-pentafluoro-2-hydroxy-2-phenylbutanoyl]-4,4′-bipiperidin-1-yl}benzamide], for which, in test [1], the EC50 was 913 nM and the Emax was 54%. In test [2], the EC50 is 26 nM and the Emax was 146%.

In the case of `CC(C)(C)OC(=O)NC1CN(C(=O)c2ccc(N3CCC(C4CCN(C(=O)[C@](O)(c5ccccc5)C(F)(F)C(F)(F)F)CC4)CC3)cc2Cl)C1` [Example E-65, tert-butyl {1-[(2-chloro-4-{1′-[(2R)-3,3,4,4,4-pentafluoro-2-hydroxy-2-phenylbutanoyl]-4,4′-bipiperidin-1-yl}phenyl)carbonyl]azetidin-3-yl}carbamate], in test [1], the EC50 stood at 635 nM and the Emax was determined as 64%. Further, in test [2], the EC50 is 17 nM and the Emax amounted to 137%.

As to `O=C(c1ccc(N2CCC(C3CCN(C(=O)[C@](O)(c4ccccc4)C(F)(F)C(F)(F)F)CC3)CC2)cc1Cl)N1CCC[C@H]1CO` [Example E-66, (2R)-1-[1′-(3-chloro-4-{[(2S)-2-(hydroxymethyl)pyrrolidin-1-yl]carbonyl}phenyl)-4,4′-bipiperidin-1-yl]-3,3,4,4,4-pentafluoro-1-oxo-2-phenylbutan-2-ol], in test [1], the EC50 came to 211 nM and the Emax was found to be 72%. Also, in test [2], the EC50 is 12 nM and the Emax was 126%.

Regarding `O=C(c1ccc(N2CCC(C3CCN(C(=O)[C@](O)(c4ccccc4)C(F)(F)F)CC3)CC2)cc1Cl)N(CCF)CCF` [Example E-67, 2-chloro-N,N-bis(2-fluoroethyl)-4-{1′-[(2R)-3,3,3-trifluoro-2-hydroxy-2-phenylpropanoyl]-4,4′-bipiperidin-1-yl}benzamide], in test [1], the EC50 was found to be 2100 nM and the Emax was determined as 30%. Also, in test [2], the EC50 is 171 nM and the Emax stood at 106%.

Take `CC(C)(C)OC(=O)NC1CN(C(=O)c2ccc(N3CCC(C4CCN(C(=O)OC(C)(C)C)CC4)CC3)cc2Cl)C1` [Example E-68, tert-butyl 1′-[4-({3-[(tert-butoxycarbonyl)amino]azetidin-1-yl}carbonyl)-3-chlorophenyl]-4,4′-bipiperidine-1-carboxylate]: in test [1], the EC50 is 367 nM and the Emax was determined as 64%. Moreover, in test [2], the EC50 was determined as 29 nM and the Emax came to 92%.

On to `CC(C)(C)OC(=O)N1CCC(C2CCN(c3ccc(C(C)(C)O)c(Cl)c3)CC2)CC1` [Example E-69, tert-butyl 1′-[3-chloro-4-(1-hydroxy-1-methylethyl)phenyl]-4,4′-bipiperidine-1-carboxylate], for which, in test [1], the EC50 came to 996 nM and the Emax was determined as 56%. Besides, in test [2], the EC50 was found to be 322 nM and the Emax was 69%.
